# Measurements: patent US20040039266A1, “Apparatus and method for measurement of biological structures” (priority 2000, published 2004)
# Legend:
# [1] = test system: NOS; assay: Functional detection of NOS transfection in mouse mesenteric arteries by absorption spectroscopy
# Description: Mouse 1st order mesenteric arteries are dissected out and maintained in Optimem I supplemented with 10% foetal bovine serum. cDNAs (for NOS) inserted into appropriate plasmids are mixed with LipofectAMINE according to the manufacturers instructions. Two arteries are set up in separate perfusion chambers; the first tissue (A) acts as a control (receives LipofectAMINE and plasmids without the cDNA insert), the second tissue (B) receives LipofectAMINE with plasmids containing the NOS cDNA insert. The arteries are exposed to the appropriate transfection solutions for 8 hours.
# After 8 hours, the unit switches automatically and perfuses the vessels with normal PSS. Analysis of the lumen diameter via absorption spectroscopy begins, providing continual information on the contractile state of the artery.
# Functional detection of NOS activity is achieved by way of a two-stage protocol. Firstly, concentration-response curves to ACh are conducted in both vessels. During the concentration-response curve, changes in the state of the blood vessels are continuously monitored by absorption spectroscopy. ACh selectively activates expressed NOS synthase and causes release of the vasodilator nitric oxide (NO). […] The control vessel should display little vasodilation to ACh, as NOS cDNA was not transfected in this tissue.
# Both vessels are then perfused with normal PSS for thirty minutes. […]
# [2] = test system: 3rd order mesenteric arteries; assay: Absorption spectroscopy of agonist-induced vasoconstriction in pressurised rat mesenteric arteries; conditions: increasing concentrations; normotensive male Wistar rat arteries, 60 mmHg, 37° C., PSS
# Description: 3rd order mesenteric arteries from normotensive male Wistar rats were set up in two perfusion chambers in normal physiological salt solution (PSS), at 37° C. and gassed with 95% O2/5% CO2. The vessels were pressurised to 60 mmHg and allowed to equilibrate for 30 minutes. Thereafter, one vessel acted as a control and the other vessel received increasing concentrations of the thromboxane A2 mimetic, U46619. Transmission spectra were recorded at one second intervals and analysed according to the methods described above.
# The optical extinction model described above was used to accurately and continuously measure lumen diameter.
smiles,measurement,setting,value
COC(=O)[C@@H](N)CCCNC(=N)N[N+](=O)[O-] [L-NAME],effect on ACh responses (concentration response curve repeated in presence of inhibitor),[1]; NOS cDNA-transfected mouse mesenteric artery,abolish further responses to ACh
CCCCC[C@H](O)/C=C/[C@@H]1[C@@H](C/C=C\CCCC(=O)O)[C@H]2CO[C@@H]1C2 [U46619],vasoconstriction (change in lumen diameter) detected via shifts in transmission spectra,[2],vasoconstriction was detected
CC(=O)OCC[N+](C)(C)C [ACh],response of NOS cDNA-transfected blood vessel to ACh,"[1]; concentration-response curve, NOS-knockout mouse 1st order mesenteric artery after 8 hours transfection",vasodilation
